Measured values from patent US20110166121A1 (LG LIFE SCIENCES LTD., priority 2008, published 2011).

Experiments:
[1] = tested on: Human platelet aggregation caused by ADP; test: Inhibition of ADP-induced platelet aggregation (Mimic-human PRP); assay type: cell-based; settings: 20 μM ADP, human platelet concentrate diluted with PPP, absorption at 595 nm
How it was run: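 Human PRP diluted with PPP to 3–4×10^8 platelets/mL was preincubated 20 min at room temperature with compound (0.01–30 μM, DMSO), then stimulated with 20 μM ADP. Aggregation read as A595 increase at 3 min versus 0 and 20 μM ADP controls; Ki from sigmoidal non-linear regression.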

Human P2Y12 receptor = target: T1, Human P2Y12 receptor (Homo sapiens, UniProt Q9H244); test: Human P2Y12 receptor cell membrane binding assay with [3H] 2-Mes-ADP; settings: 1 nM [3H] 2-Mes-ADP, membranes of HEK cells expressing P2Y12 receptor; read-out: Binding activity (IC50)
T1 construct: expressed in transfected cells; host or cells: HEK cells
T1 sequence (Q9H244 whole entry): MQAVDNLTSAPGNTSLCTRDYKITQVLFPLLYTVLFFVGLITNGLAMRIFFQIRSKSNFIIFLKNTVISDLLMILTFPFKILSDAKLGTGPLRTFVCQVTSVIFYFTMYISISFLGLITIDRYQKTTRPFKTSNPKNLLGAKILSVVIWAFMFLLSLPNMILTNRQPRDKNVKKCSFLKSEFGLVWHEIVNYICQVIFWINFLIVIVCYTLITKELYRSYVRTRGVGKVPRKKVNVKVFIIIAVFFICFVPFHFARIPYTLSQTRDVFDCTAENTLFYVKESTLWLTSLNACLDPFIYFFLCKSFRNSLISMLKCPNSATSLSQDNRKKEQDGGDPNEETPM
How it was run: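 Membranes from HEK cells expressing human P2Y12 were incubated with compound and 1 nM [3H]2-MeS-ADP for 1 h at room temperature. Bound radioactivity was collected by GF/B filtration.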

| Compound | Ki [1] [nM] | IC50 (Human P2Y12 receptor) [nM] |
| --- | --- | --- |
| CCCc1cc2c(N3CCn4c(nnc4C(F)(F)F)C3)nc(OCc3cocn3)nc2s1 [Example 3-20, 7-[2-(Oxazol-4-ylmethoxy)-6-propyl-thieno[2,3-d]pyrimidin-4-yl]-3-trifluoromethyl-5,6,7,8-tetrahydro-[1,2,4]triazolo[4,3-a]pyrazine] | 840 | 84 |
| CCCc1cc2c(N3CCn4c(nnc4C(F)(F)F)C3)nc(OCCc3cc(F)cc(F)c3F)nc2s1 [Example 3-21, 7-{6-Propyl-2-[2-(2,3,5-trifluoro-phenyl)-ethoxy]-thieno[2,3-d]pyrimidin-4-yl}-3-trifluoromethyl-5,6,7,8-tetrahydro-[1,2,4]triazolo[4,3-a]pyrazine] | 390 | 110 |
| CCCc1cc2c(N3CCn4c(nnc4C(F)(F)F)C3)nc(OCc3ccccn3)nc2s1 [Example 3-23, 7-[6-Propyl-2-(pyridin-2-ylmethoxy)-thieno[2,3-d]pyrimidin-4-yl]-3-trifluoromethyl-5,6,7,8-tetrahydro-[1,2,4]triazolo[4,3-a]pyrazine] | > 4000 | 370 |
| CCCc1cc2c(N3CCn4c(nnc4C(F)(F)F)C3)nc(OCc3cccnc3)nc2s1 [Example 3-24, 7-[6-Propyl-2-(pyridin-3-ylmethoxy)-thieno[2,3-d]pyrimidin-4-yl]-3-trifluoromethyl-5,6,7,8-tetrahydro-[1,2,4]triazolo[4,3-a]pyrazine] | 1480 | 160 |
| CCCc1cc2c(N3CCn4c(nnc4C(F)(F)F)C3)nc(OCc3ccncc3)nc2s1 [Example 3-25, 7-[6-Propyl-2-(pyridin-4-ylmethoxy)-thieno[2,3-d]pyrimidin-4-yl]-3-trifluoromethyl-5,6,7,8-tetrahydro-[1,2,4]triazolo[4,3-a]pyrazine] | 930 | 170 |
| CCCc1cc2c(N3CCn4c(nnc4C(F)(F)F)C3)nc(OC3CNC3)nc2s1 [Example 3-26, 7-[2-(Azetidin-3-yloxy)-6-propyl-thieno[2,3-d]pyrimidin-4-yl]-3-trifluoromethyl-5,6,7,8-tetrahydro-[1,2,4]triazolo[4,3-a]pyrazine] | 25 | 149 |
| CCCc1cc2c(N3CCn4c(nnc4C(F)(F)F)C3)nc(O)nc2s1 [Example 3-27, 6-Propyl-4-(3-trifluoromethyl-5,6-dihydro-8H-[1,2,4]triazolo[4,3-a]pyrazin-7-yl)-thieno[2,3-d]pyrimidin-2-ol] | 8800 | 5380 |
| CCCc1cc2c(N3CCn4c(nnc4C(F)(F)F)C3)nc(Oc3ccccc3)nc2s1 [Example 3-28, 7-(2-Phenoxy-6-propyl-thieno[2,3-d]pyrimidin-4-yl)-3-trifluoromethyl-5,6,7,8-tetrahydro-[1,2,4]triazolo[4,3-a]pyrazine] | 9700 | 179 |
| CCCc1cc2c(N3CCn4c(nnc4C(F)(F)F)C3)nc(Oc3cccnc3)nc2s1 [Example 3-29, 7-[6-Propyl-2-(pyridin-3-yloxy)-thieno[2,3-d]pyrimidin-4-yl]-3-trifluoromethyl-5,6,7,8-tetrahydro-[1,2,4]triazolo[4,3-a]pyrazine] | 150 | 220 |
| CCCc1cc2c(N3CCn4c(nnc4C(F)(F)F)C3)nc(Oc3cccc(C(=O)OC)c3)nc2s1 [Example 3-30, 3-[6-Propyl-4-(3-trifluoromethyl-5,6-dihydro-8H-[1,2,4]triazolo[4,3-a]pyrazin-7-yl)-thieno[2,3-d]pyrimidin-2-yloxy]-benzoic acid methyl ester] | > 4000 | 280 |
| CCCc1cc2c(N3CCn4c(nnc4C(F)(F)F)C3)nc(Oc3cccc(C(=O)O)c3)nc2s1 [Example 3-31, 3-[6-Propyl-4-(3-trifluoromethyl-5,6-dihydro-8H-[1,2,4]triazolo[4,3-a]pyrazin-7-yl)-thieno[2,3-d]pyrimidin-2-yloxy]-benzoic acid] | 2000 | 196 |
| CCCc1cc2c(N3CCn4c(nnc4C(F)(F)F)C3)nc(Oc3ccccc3C(=O)OC)nc2s1 [Example 3-32, 2-[6-Propyl-4-(3-trifluoromethyl-5,6-dihydro-8H-[1,2,4]triazolo[4,3-a]pyrazin-7-yl)-thieno[2,3-d]pyrimidin-2-yloxy]-benzoic acid methyl ester] | > 4000 | 650 |
| CCCc1cc2c(N3CCn4c(nnc4C(F)(F)F)C3)nc(Oc3ccccc3C(=O)O)nc2s1 [Example 3-33, 2-[6-Propyl-4-(3-trifluoromethyl-5,6-dihydro-8H-[1,2,4]triazolo[4,3-a]pyrazin-7-yl)-thieno[2,3-d]pyrimidin-2-yloxy]-benzoic acid] | > 4000 | 2220 |
| CCCc1cc2c(N3CCn4c(nnc4C(F)(F)F)C3)nc(Oc3ccc(C(=O)OC)cc3)nc2s1 [Example 3-34, 4-[6-Propyl-4-(3-trifluoromethyl-5,6-dihydro-8H-[1,2,4]triazolo[4,3-a]pyrazin-7-yl)-thieno[2,3-d]pyrimidin-2-yloxy]-benzoic acid methyl ester] | > 4000 | 473 |
| CCCc1cc2c(N3CCn4c(nnc4C(F)(F)F)C3)nc(Oc3ccc(C(=O)O)cc3)nc2s1 [Example 3-35, 4-[6-Propyl-4-(3-trifluoromethyl-5,6-dihydro-8H-[1,2,4]triazolo[4,3-a]pyrazin-7-yl)-thieno[2,3-d]pyrimidin-2-yloxy]-benzoic acid] | 1400 | 99 |
| CCCc1cc2c(N3CCn4c(nnc4C(F)(F)F)C3)nc(Oc3ccccn3)nc2s1 [Example 3-36, 7-[6-Propyl-2-(pyridin-2-yloxy)-thieno[2,3-d]pyrimidin-4-yl]-3-trifluoromethyl-5,6,7,8-tetrahydro-[1,2,4]triazolo[4,3-a]pyrazine] | 940 | 260 |
| CCCc1cc2c(N3CCn4c(nnc4C(F)(F)F)C3)nc(Oc3cccc(C#N)c3)nc2s1 [Example 3-37, 3-[6-Propyl-4-(3-trifluoromethyl-5,6-dihydro-8H-[1,2,4]triazolo[4,3-a]pyrazin-7-yl)-thieno[2,3-d]pyrimidin-2-yloxy]-benzonitrile] | 1300 | 198 |
| CCCc1cc2c(N3CCn4c(nnc4C(F)(F)F)C3)nc(Oc3ccc(C#N)cc3)nc2s1 [Example 3-38, 4-[6-Propyl-4-(3-trifluoromethyl-5,6-dihydro-8H-[1,2,4]triazolo[4,3-a]pyrazin-7-yl)-thieno[2,3-d]pyrimidin-2-yloxy]-benzonitrile] | 2200 | 179 |
| CCCc1cc2c(N3CCn4c(nnc4C(F)(F)F)C3)nc(Oc3ccc(CC(=O)OC)cc3)nc2s1 [Example 3-39, {4-[6-Propyl-4-(3-trifluoromethyl-5,6-dihydro-8H-[1,2,4]triazolo[4,3-a]pyrazin-7-yl)-thieno[2,3-d]pyrimidin-2-yloxy]-phenyl}-acetic acid methyl ester] | 2400 | 300 |
| CCCc1cc2c(N3CCn4c(nnc4C(F)(F)F)C3)nc(Oc3ccc(CC(=O)O)cc3)nc2s1 [Example 3-40, {4-[6-Propyl-4-(3-trifluoromethyl-5,6-dihydro-8H-[1,2,4]triazolo[4,3-a]pyrazin-7-yl)-thieno[2,3-d]pyrimidin-2-yloxy]-phenyl}-acetic acid] | 1200 | 230 |
| CCCc1cc2c(N3CCn4c(nnc4C(F)(F)F)C3)nc(Oc3ccc(CCC(=O)OC)cc3)nc2s1 [Example 3-41, 3-{4-[6-Propyl-4-(3-trifluoromethyl-5,6-dihydro-8H-[1,2,4]triazolo[4,3-a]pyrazin-7-yl)-thieno[2,3-d]pyrimidin-2-yloxy]-phenyl}-propionic acid methyl ester] | 1500 | 390 |
| CCCc1cc2c(N3CCn4c(nnc4C(F)(F)F)C3)nc(Oc3ccc(CCC(=O)O)cc3)nc2s1 [Example 3-42, 3-{4-[6-Propyl-4-(3-trifluoromethyl-5,6-dihydro-8H-[1,2,4]triazolo[4,3-a]pyrazin-7-yl)-thieno[2,3-d]pyrimidin-2-yloxy]-phenyl}-propionic acid] | 660 | 250 |
| CCCc1cc2c(N3CCn4c(nnc4C(F)(F)F)C3)nc(Oc3ccc(OCC(=O)OC)cc3)nc2s1 [Example 3-43, {4-[6-Propyl-4-(3-trifluoromethyl-5,6-dihydro-8H-[1,2,4]triazolo[4,3-a]pyrazin-7-yl)-thieno[2,3-d]pyrimidin-2-yloxy]-phenoxy}-acetic acid methyl ester] | > 4000 | 650 |
| CCCc1cc2c(N3CCn4c(nnc4C(F)(F)F)C3)nc(Oc3ccc(OCC(=O)O)cc3)nc2s1 [Example 3-44, {4-[6-Propyl-4-(3-trifluoromethyl-5,6-dihydro-8H-[1,2,4]triazolo[4,3-a]pyrazin-7-yl)-thieno[2,3-d]pyrimidin-2-yloxy]-phenoxy}-acetic acid] | 500 | 180 |
| CCCc1cc2c(N3CCn4c(nnc4C(F)(F)F)C3)nc(Oc3cccc(N4CCNCC4)c3)nc2s1 [Example 3-45, 7-[2-(3-piperazin-1-yl-phenoxy)-6-propyl-thieno[2,3-d]pyrimidin-4-yl]-3-trifluoromethyl-5,6,7,8-tetrahydro-[1,2,4]triazolo[4,3-a]pyrazine] | > 4000 | 1900 |
| CCCc1cc2c(N3CCn4c(nnc4C(F)(F)F)C3)nc(Oc3ccc(N4CCNCC4)cc3)nc2s1 [Example 3-46, 7-[2-(4-piperazin-1-yl-phenoxy)-6-propyl-thieno[2,3-d]pyrimidin-4-yl]-3-trifluoromethyl-5,6,7,8-tetrahydro-[1,2,4]triazolo[4,3-a]pyrazine] | > 4000 | 2330 |
